Data published in patent publication US7582678B2, “Use of branched-chain fatty acids and derivatives thereof for the treatment of pain” (D-PHARM Limited, priority 1998, dated 2009).

How the values were obtained:
Sprague-Dawley (SD) rats = details: rats day 15 post-CCI operation, s.c. 150 mg/kg, vs vehicle (FIG. 3)
Experimental: Male, Sprague-Dawley (SD) rats, weighing around 200-250 grams, were anesthetized by i.p. injection of ketamine (50 mg/kg) and xylazine (10 mg/kg). The common sciatic nerve was exposed at the middle of the thigh of the hind right foot. Four ligatures were tied loosely around the nerve with a spacing of about 1 mm between them. The incision was closed by suturing the inner layers of the muscles with chromic gut suture, and the outer skin with silk suture. Five to seven days later the nociceptive threshold can be evaluated by quantifying sensitivity of the foot to mechanical stimuli or cold temperatures to assess allodynia.
The mechanical sensitivity of the animal foot is measured using the von Frey test [Kim and Chung (1992) Pain 50: 355-63]. An automated von Frey test was employed, in which a von Frey filament is applied to the plantar surface of the animal foot and the filament is pushed automatically at a preset rate of force/time increments into the plantar. Each measurement was repeated 2-3 times in each epsilateral and contralateral foot of the tested animals. The time lapsed from applying of pressure until withdrawal of the foot from the innocuous stimulus was measured in the treated animals and compared to the baseline values obtained for each animal prior to treatment.
As a control served CCI-operated animals injected with vehicle only.

CD-1 mice = details: 150 mg/kg single dose one hour before formalin; vs non-treated animals; 10 to 35 minutes after formalin (chronic phase); p<0.05 (FIG. 2)
Experimental: Evaluation of pain is based on the observed behavior of the animals after the formalin injection.
Formalin stock (Frutarom Ltd., Israel; cat. # 5551830; 3.4-3.8% formaldehyde content) was diluted into 2.5% formalin solution in saline. 25 μl of the 2.5% formalin solution was injected into the plantar surface of CD-1 mice foot using a syringe with a 29G needle. The animals' reaction, apparent as licking and lifting the paw off the ground, is noticed immediately after injection. Each of the treated animals and control naive animals injected only with formalin was monitored for a period of 40 min, through 5 minutes time segments (4-6 animals in a group).
Evaluation of pain was performed by recording the time the animal spent licking its paw. A computerized program was used for timing the total number of seconds each animal spent licking its paw during the preset period of 5 min. This step was repeated for up to 40 min (8 intervals of 5 min).

Male CD-1 mice = assay: Tail flick assay (radiated heat, acute pain) in mice;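 also: infrared heat aimed at the tail of restrained mice, time until tail flick recorded as mean of 2-3 readings, 4-8 animals per group, compared with vehicle-treated animals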
Experimental: The analgesic effect of branched-chain fatty acids (BFAs) and their DP-BFAs derivatives was tested by using the tail flick assay in mice.
This model uses radiated infrared (IR) heat source that is directed to the tail of a restrained mouse. The threshold of tolerance for heat is indicated by a time-meter, which is stopped instantaneously when the tail flicks. This time is defined as ‘withdrawal latency’.
Male CD-1 mice weighing around 25-30 grams (4-8 animals per each dose of the tested compound) were used. The animals were put in clear plastic cages above an IR source (7371-Plantar™ Analgesia Instrument, UGO Basile), where the IR generator is placed directly underneath the tail of the mouse and the light beam is focused on the proximal third of the tail.
The withdrawal latency, namely the time interval from the starting of the infrared radiation until the animal feels pain and flicks its tail is determined. The initial withdrawal latency for each animal was measured at t=0 and was determined as its baseline threshold.
In order to determine the analgesic effect of a tested drug, the drug (10 to 200 mg/kg body weight) was administered to mice either orally (p.o.) or by intraperitoneal (i.p.) or subcutaneous (s.c.) injection. Withdrawal latency was determined at different time points post-administration of the drug as indicated. Each reading was performed 2-3 times and the mean-value was calculated. […] The withdrawal latency at each time point post injection is the average of 4-8 animals per group. […] Paired T-test was used to assess significance in comparison to the baseline value (t=0). Morphine was used as a positive control (2 animals per dose).

8-Pentadecanyl phosphocholine
withdrawal threshold (mechanical allodynia, von Frey) (Sprague-Dawley (SD) rats): increased withdrawal threshold
time the animal spent licking its paw (CD-1 mice): significant less time licking their paw
Withdrawal latency (% of vehicle) (Male CD-1 mice; I.P., 100 mg/kg, 15 min post-injection): 235% of vehicle
Withdrawal latency (% of vehicle) (Male CD-1 mice; I.P., 100 mg/kg, 45 min post-injection): 134% of vehicle
Withdrawal latency (% of vehicle) (Male CD-1 mice; I.P., 100 mg/kg, 75 min post-injection): 177% of vehicle
Withdrawal latency (% of vehicle) (Male CD-1 mice; I.P., 100 mg/kg, 105 min post-injection): 134% of vehicle
Withdrawal latency (% of vehicle) (Male CD-1 mice; I.P., 100 mg/kg, 135 min post-injection): 141% of vehicle
Withdrawal latency (% of vehicle) (Male CD-1 mice; I.P., 100 mg/kg, 285 min post-injection): 145% of vehicle
Withdrawal latency (% of vehicle) (Male CD-1 mice; P.O., 50 mg/kg, 45 min post-administration): 149% of vehicle
Withdrawal latency (% of vehicle) (Male CD-1 mice; P.O., 50 mg/kg, 75 min post-administration): 157% of vehicle
Withdrawal latency (% of vehicle) (Male CD-1 mice; P.O., 50 mg/kg, 105 min post-administration): 145% of vehicle
Withdrawal latency (% of vehicle) (Male CD-1 mice; P.O., 50 mg/kg, 135 min post-administration): 137% of vehicle
Withdrawal latency (% of vehicle) (Male CD-1 mice; P.O., 50 mg/kg, 285 min post-administration): 127% of vehicle
Withdrawal latency (% of vehicle) (Male CD-1 mice; P.O., 50 mg/kg, 345 min post-administration): 124% of vehicle
Withdrawal latency (% of vehicle) (Male CD-1 mice; S.C., 25 mg/kg, 45 min post-injection): 147% of vehicle
Withdrawal latency (% of vehicle) (Male CD-1 mice; S.C., 25 mg/kg, 75 min post-injection): 143% of vehicle
Withdrawal latency (% of vehicle) (Male CD-1 mice; S.C., 25 mg/kg, 105 min post-injection): 165% of vehicle
Withdrawal latency (% of vehicle) (Male CD-1 mice; S.C., 25 mg/kg, 135 min post-injection): 169% of vehicle
Withdrawal latency (% of vehicle) (Male CD-1 mice; S.C., 25 mg/kg, 285 min post-injection): 141% of vehicle
Withdrawal latency (% of vehicle) (Male CD-1 mice; S.C., 25 mg/kg, 345 min post-injection): 130% of vehicle
Withdrawal latency (% of vehicle) (Male CD-1 mice; S.C., 150 mg/kg, 45 min post-injection): 194% of vehicle
Withdrawal latency (% of vehicle) (Male CD-1 mice; S.C., 150 mg/kg, 75 min post-injection): 217% of vehicle
Withdrawal latency (% of vehicle) (Male CD-1 mice; S.C., 150 mg/kg, 105 min post-injection): 186% of vehicle
Withdrawal latency (% of vehicle) (Male CD-1 mice; S.C., 150 mg/kg, 135 min post-injection): 175% of vehicle
Withdrawal latency (% of vehicle) (Male CD-1 mice; S.C., 150 mg/kg, 285 min post-injection): 184% of vehicle
Withdrawal latency (% of vehicle) (Male CD-1 mice; S.C., 150 mg/kg, 345 min post-injection): 175% of vehicle
increase in withdrawal latency (Male CD-1 mice; s.c., 150 mg/kg, 5-6 hours post injection): around 80%
potency ranking in the assay (Male CD-1 mice; tail flick): most potent
size of analgesic effect, ranking among tested compounds (Male CD-1 mice; tail flick, Table 1): largest analgesic effects
